In patent US20130040291A1, “Detection and Quantification of Cellular Stress Response Resolution Pathway Expression and Functionality and the Effects of Agents or Conditions Thereupon” (priority 2011, published 2013):

Key:
[1] = system: CDNR4 cells; assay: Determination of the SRID-50% level of 6-TG (calibrated stress conditions); type: cell-based, murine
Procedure: The calibrated stress conditions and the SRID-x % level are determined ideally using parental, control, or vehicle-exposed cells. This portion of the assay requires that several variables, including cell plating density, calibrated stress conditions level, and duration of stress conditions exposure be optimized simultaneously. These variables are interdependent such that each affects the outcome of the other, thereby making this portion of the assay one of the most critical. To achieve high sensitivity for detection of assay endpoints, it is important that the maximum number of cells be evaluated; however, optimal calibrated stress conditions are achieved at relatively low cell plating densities. In addition, cell plating densities and the SKID-x % level of stress inducing agent chosen for use in the assay must be such that fewer than one positive endpoint per well occurs in the assay. Using cell survival as an example, if multiple surviving cell clones are identified in the same well(s) during an experiment, then the cell plating density must be reduced and/or the SRID-x % level must be increased so that the frequency of occurrence of surviving clones is reduced to less than one per well. Thus, optimization of these variables is necessary.
Pilot studies that evaluate a range of cell plating densities and a range of calibrated stress conditions levels for the stress inducing agent of choice are used and are applied to untreated, control or parental cells. It is advisable to use a low plating density that results in rapid expression of stress resolution pathways (within 3 to 4 days where possible), or as quickly as possible after calibrated stress conditions exposure. In spite of potentially significant differences between cells of different types from different tissues and from different species, preliminary results from the SR assay support the conclusion that the optimal plating density for many cell types falls within a predictable range. […] These values can serve as starting points for empirical determination of the optimal cell plating density for the cells of interest to be used in the assay.
After estimating the optimal cell plating density, dose response curves are generated for the calibrated stress conditions agent of interest. For experiments in which cell survival is the phenotype of interest, work with the assay completed to date supports the conclusion that calibrated stress conditions levels that reduce expression of pro-survival pathways to a level that results in survival of one or fewer clones in 50% of the wells of a 96 well plate (defined as the SRID-50%) is the optimal level for assessment of damage avoidance pro-survival pathways. Use of these levels also results in a sufficiently robust expression of damage tolerance paths to make it possible to evaluate differences or changes in expression of these pathways between cell types and/or between differing exogenous exposures. Because cell plating density and level of calibrated stress inducing agent are inter-dependent, it may be necessary to perform several pilot studies using differing cell plating densities and a range of stress-response inducing levels to find the optimal combination of use with the cell type of interest in the assay.
There are two limits associated with Poisson distribution principles that must be considered in selecting the SRID-x % level of stress inducing agent. First, stress induction levels that result in a response frequency, for the response type of interest, that is near or equal to 100% of the sites being evaluated should be avoided and the same considerations are true for stress induction levels resulting in responses frequencies near or equal to 0%. The SR assay cannot accurately quantify response frequencies near 100% or near 0%, and this limitation forms the one of the factors affecting the selection of the SRID-x % level. […]

[2] = system: CDNR4 cells; assay: Midway cloning efficiency (mCE), pre-calibrated stress conditions pro-survival pathway function; type: cell-based, murine; conditions: ENU 20 micrograms/ml 1 hour, 2 weeks (day 14) post-exposure
Excerpt: mCE procedure #2 for cells that grow attached to a surface or basement membrane and/or that have the following growth characteristics when grown in tissue culture. The second method is novel and is recommended for use with epithelial cells, cells that form tight junctions, cells that produce mucinous material during in vitro cell culture, and/or cells that attach to a basement membrane. The latter characteristics are typical of epithelial cells but are not unique to this cell type alone.
This procedure is used to obtain an accurate cell count in vials of very dilute cells that are used for plating cloning efficiency plates. […]
For this procedure, the cell aliquot that was set aside during the initial cell counting is divided into 2 equal groups and diluted as follows. […] Approximately 12 to 15 hours later, the average number of cells per milliliter on the 6 or 12 well plates for both groups A and B is determined using light microscopy to visualize and count the cells. […] Viable cells are counted; dead cells or cell fragments are not counted. […] The final cloning efficiency is determined using the formula presented above (see phase 3 step 5). […]

## CCN(N=O)C(N)=O [ENU, ethylnitrosourea]
[1]; ENU 20 micrograms/ml 1 hour, 2 weeks earlier, 600 cells per well, stress agent 6-TG
  SRID-50% of ENU-exposed cells: 2.5 micrograms/ml
[1]; ENU-exposed vs unexposed CDNR4 cells, from SRID-50% levels
  reduction in the functionality of pro-survival cellular stress response pathways: 20 fold
[1]; pre-exposure 20 micrograms ENU 1 hour, tested two weeks later, 6-TG for 4 days
  SRID-50% level of ENU-exposed CDNR4 cells: 2.5 micrograms 6-TG
[2]
  mCE (midway cloning efficiency): 34.2%
